Source: ChEMBL document CHEMBL1128550, “Nonclassical 2,4-diamino-6-(aminomethyl)-5,6,7,8-tetrahydroquinazoline antifolates: synthesis and biological activities” (J Med Chem, 1995)

Columns and labels:
[1] = target: T1, Bifunctional dihydrofolate reductase-thymidylate synthase (Toxoplasma gondii, UniProt Q07422); test: Inhibitory activity against purified Dihydrofolate reductase from Toxoplasma gondii.
T1 sequence (Q07422 whole entry): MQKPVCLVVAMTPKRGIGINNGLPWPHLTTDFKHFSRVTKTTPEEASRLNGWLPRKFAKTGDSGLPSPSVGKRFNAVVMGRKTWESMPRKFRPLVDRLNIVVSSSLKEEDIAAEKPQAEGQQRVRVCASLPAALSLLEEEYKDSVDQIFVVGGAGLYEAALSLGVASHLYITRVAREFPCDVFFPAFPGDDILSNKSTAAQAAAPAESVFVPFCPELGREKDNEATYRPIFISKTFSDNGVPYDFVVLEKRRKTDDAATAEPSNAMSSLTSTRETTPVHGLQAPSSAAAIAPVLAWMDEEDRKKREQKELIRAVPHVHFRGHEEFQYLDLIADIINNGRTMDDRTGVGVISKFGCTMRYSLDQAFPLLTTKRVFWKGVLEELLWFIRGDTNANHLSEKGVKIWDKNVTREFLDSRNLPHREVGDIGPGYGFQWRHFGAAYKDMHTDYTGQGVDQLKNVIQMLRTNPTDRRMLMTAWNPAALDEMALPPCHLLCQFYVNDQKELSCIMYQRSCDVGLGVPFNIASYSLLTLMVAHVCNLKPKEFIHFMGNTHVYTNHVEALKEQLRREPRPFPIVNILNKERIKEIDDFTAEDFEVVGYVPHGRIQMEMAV

Dihydrofolate reductase [2] = target: T2, Dihydrofolate reductase (Pneumocystis carinii, UniProt P16184); test: Inhibitory activity against purified dihydrofolate reductase from Pneumocystis carinii.
T2 sequence (P16184 whole entry): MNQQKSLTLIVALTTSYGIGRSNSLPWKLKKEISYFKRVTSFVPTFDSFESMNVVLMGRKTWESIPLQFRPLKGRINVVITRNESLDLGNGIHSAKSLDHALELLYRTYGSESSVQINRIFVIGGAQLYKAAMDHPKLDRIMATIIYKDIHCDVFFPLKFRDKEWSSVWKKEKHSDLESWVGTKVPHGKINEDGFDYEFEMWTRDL

Dihydrofolate reductase [3] = target: T3, Dihydrofolate reductase (Rattus norvegicus, UniProt Q920D2); test: Inhibitory activity against purified dihydrofolate reductase from rat
T3 sequence (Q920D2 whole entry): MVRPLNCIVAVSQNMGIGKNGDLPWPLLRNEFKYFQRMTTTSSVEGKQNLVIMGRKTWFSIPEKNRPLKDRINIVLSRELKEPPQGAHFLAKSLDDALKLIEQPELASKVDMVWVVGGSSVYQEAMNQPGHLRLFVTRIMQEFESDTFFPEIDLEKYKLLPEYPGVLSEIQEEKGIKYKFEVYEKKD

[4] = target: T1, Bifunctional dihydrofolate reductase-thymidylate synthase; test: Inhibitory activity against purified DHFR (Dihydrofolate reductase) from Toxoplasma gondii.
Dihydrofolate reductase [5] = target: T3, Dihydrofolate reductase
Description: Inhibitory activity against purified DHFR (Dihydrofolate reductase) from rat

Dihydrofolate reductase [6] = target: T2, Dihydrofolate reductase
Description: Inhibitory activity against purified DHFR (Dihydrofolate reductase) from Pneumocystis carinii.

NCI-H460 = test: In vitro activity of compound against non-small cell lung cancer NCI-H460; type: functional; conditions: Homo sapiens
[7] = target: T1, Bifunctional dihydrofolate reductase-thymidylate synthase; test: Inhibitory activity against purified DHFR (Dihydrofolate reductase) from Toxoplasma gondii
K562 = test: In vitro activity of compound against leukemia K-562 cell line; type: functional, Homo sapiens

| IC50 (Dihydrofolate reductase [2]) [µM] | IC50 (Dihydrofolate reductase [3]) [µM] | IC50 (Dihydrofolate reductase [5]) [µM] | IC50 (Dihydrofolate reductase [6]) [µM] | Structure (SMILES) | IC50 [1] [µM] | IC50 [4] [µM] | other results |
| --- | --- | --- | --- | --- | --- | --- | --- |
| 0.119 | 0.074 | – | – | C#CCN(CC1CCc2nc(N)nc(N)c2C1)c1cc(OC)c(OC)c(OC)c1 (stereo not given) | 0.012 | – | – |
| – | – | 1.47 | 1.57 | CCOc1ccc(OCC)c(NCC2CCc3nc(N)nc(N)c3C2)c1 (stereo not given) | – | 0.14 | – |
| 0.114 | 0.071 | – | – | CCN(CC1CCc2nc(N)nc(N)c2C1)c1cc(OC)ccc1OC (stereo not given) | 0.017 | – | – |
| 0.3 | 0.26 | – | – | COc1ccc(OC)c(N(C)CC2CCc3nc(N)nc(N)c3C2)c1 (stereo not given) | 0.015 | – | – |
| – | – | 1.63 | 3.1 | COc1cc(CN(C)CC2CCc3nc(N)nc(N)c3C2)cc(OC)c1OC (stereo not given) | – | 0.33 | – |
| 0.171 | 0.067 | – | – | CN(CC1CCc2nc(N)nc(N)c2C1)c1ccc(Cl)cc1 (stereo not given) | 0.022 | – | – |
| 0.095 | 0.038 | – | – | COc1cc(N(C)CC2CCc3nc(N)nc(N)c3C2)cc(OC)c1OC (stereo not given) | 0.007 | – | – |
| 0.319 | 0.116 | – | – | CCOc1ccc(OCC)c(N(C)CC2CCc3nc(N)nc(N)c3C2)c1 (stereo not given) | 0.017 | – | – |
| – | – | 0.109 | 0.502 | Nc1nc(N)c2c(n1)CCC(CNc1c(Cl)cccc1Cl)C2 (stereo not given) | – | 0.0099 | – |
| 18.5 | 12.7 | – | – | COc1cc(CNCC2CCc3nc(N)nc(N)c3C2)cc(OC)c1OC (stereo not given) | – | – | – |
| 1.67 | 0.56 | – | – | COc1ccc(OC)c(NCC2CCc3nc(N)nc(N)c3C2)c1 (stereo not given) | 0.181 | – | – |
| – | – | 0.29 | – | COc1cc(NCC2CCc3nc(N)nc(N)c3C2)cc(OC)c1OC (stereo not given) | – | 0.054 | – |

The next lines start with the compound.

| Structure (SMILES) | IC50 (Dihydrofolate reductase [2]) [µM] | IC50 (Dihydrofolate reductase [3]) [µM] | IC50 (Dihydrofolate reductase [5]) [µM] | IC50 (Dihydrofolate reductase [6]) [µM] | IC50 [1] [µM] | IC50 [4] [µM] | other results |
| --- | --- | --- | --- | --- | --- | --- | --- |
| Nc1nc(N)c2c(n1)CCC(CN1CCc3ccccc31)C2 (stereo not given) | – | – | 0.16 | 0.21 | – | 0.027 | – |
| Nc1nc(N)c2c(n1)CCC(CNc1ccc(Cl)c(Cl)c1)C2 (stereo not given) | 6.8 | 0.15 | – | – | 0.11 | – | – |
| Nc1nc(N)c2c(n1)CCC(CNc1cccc3ccccc13)C2 (stereo not given) | – | – | 0.139 | 0.517 | – | – | GI50 (NCI-H460): 0.05 µM; IC50 [7]: 0.036 µM |
| Nc1nc(N)c2c(n1)CCC(CNc1cc(Cl)ccc1Cl)C2 (stereo not given) | – | – | 0.24 | 0.41 | – | 0.097 | – |
| CN(CC1CCc2nc(N)nc(N)c2C1)c1cccc2ccccc12 (stereo not given) | 0.1 | 0.047 | – | – | 0.023 | – | GI50 (K562): 0.04 µM |
| CN(CC1CCc2nc(N)nc(N)c2C1)c1ccc(Cl)c(Cl)c1 (stereo not given) | 0.246 | 0.034 | – | – | 0.021 | – | – |
| Nc1nc(N)c2c(n1)CCC(CNc1ccc(Cl)cc1)C2 (stereo not given) | – | – | 0.128 | 0.94 | – | 0.078 | – |
| Nc1nc(N)c2c(n1)CCC(CNc1cccc(Br)c1)C2 (stereo not given) | 0.33 | 0.227 | – | – | 0.03 | – | – |
